This test concerns the target T1, abc isoform of TMEM16A (Homo sapiens, UniProt Q5XXA6, DEL476-501).
T1 construct: expressed in transfected cells; host or cells: HEK293T
T1 sequence (Q5XXA6 with tags, fused parts or gaps isoform Q5XXA6-5 DEL539-564): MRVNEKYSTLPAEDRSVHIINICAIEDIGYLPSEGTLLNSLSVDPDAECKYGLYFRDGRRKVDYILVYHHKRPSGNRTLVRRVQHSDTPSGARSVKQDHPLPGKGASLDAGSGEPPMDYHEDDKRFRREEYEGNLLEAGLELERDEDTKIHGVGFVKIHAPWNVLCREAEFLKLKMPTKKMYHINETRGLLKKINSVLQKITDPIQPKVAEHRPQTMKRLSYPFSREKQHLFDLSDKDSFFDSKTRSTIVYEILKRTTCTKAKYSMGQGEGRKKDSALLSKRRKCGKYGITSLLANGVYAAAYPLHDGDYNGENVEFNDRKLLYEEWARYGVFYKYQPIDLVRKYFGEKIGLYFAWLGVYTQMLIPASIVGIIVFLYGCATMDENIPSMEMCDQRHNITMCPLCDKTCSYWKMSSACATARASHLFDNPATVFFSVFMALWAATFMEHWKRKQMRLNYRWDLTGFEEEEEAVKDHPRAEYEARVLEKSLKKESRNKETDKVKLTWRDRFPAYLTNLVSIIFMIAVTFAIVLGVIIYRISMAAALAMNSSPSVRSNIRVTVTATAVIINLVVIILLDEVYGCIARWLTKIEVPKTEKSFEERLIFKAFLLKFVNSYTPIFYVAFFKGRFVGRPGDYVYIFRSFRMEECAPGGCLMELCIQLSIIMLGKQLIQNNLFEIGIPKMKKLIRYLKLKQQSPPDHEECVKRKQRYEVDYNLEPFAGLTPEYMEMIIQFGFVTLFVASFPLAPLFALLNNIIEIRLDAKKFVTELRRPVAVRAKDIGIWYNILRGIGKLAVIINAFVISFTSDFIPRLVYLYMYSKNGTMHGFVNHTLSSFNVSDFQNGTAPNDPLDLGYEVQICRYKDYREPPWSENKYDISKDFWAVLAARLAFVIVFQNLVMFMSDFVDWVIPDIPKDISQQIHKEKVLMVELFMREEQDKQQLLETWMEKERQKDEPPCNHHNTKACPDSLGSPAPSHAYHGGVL
Put plainly: QPatch-48 assay on HEK293T cell line stably expressing the abc isoform. Conditions: 30 μM. Type of test: cell-based. On the procedure:
Using the QPatch-48, we have developed a robust assay for the assessment of TMEM16A small-molecule inhibitors. Many optimization steps were performed to determine the optimal cell culture conditions, internal calcium level, holding potential and voltage protocol, and maximum duration of the assay. It was necessary to control for the culture conditions of the cells and strictly adhere to the cell preparation procedure to obtain high-quality seals. In addition, while the external solution can be used throughout the day, the internal solution should be replaced every 2 h to ensure that the ATP is fresh. Best practices also require solutions to be made weekly and for the osmolarity and pH to be measured accurately. Having met these conditions, the assay results in large currents, averaging a peak current of 6 nA, while maintaining outward rectification that is characteristic of the TMEM16A channel. The benchmark TMEM16A inhibitors that were tested during the validation efforts generated reproducible and expected IC50 values. […] Another HEK293T cell line that stably expressed the abc isoform of TMEM16A also formed high-quality seals and produced large currents.
On the technique in general: The patch-clamp technique gives a direct electrical read-out from membranes.

Regarding `CCc1oc2ccccc2c1C(=O)c1cc(Br)c(O)c(Br)c1` [Benzbromarone], the block of currents result is on record as “fully blocked”.

Source of the values: PMC7268545, “Development of a QPatch-Automated Electrophysiology Assay for Identifying TMEM16A Small-Molecule Inhibitors” (Assay and Drug Development Technologies, 2020).
